Where two headings read alike, the source gives them in different places.
Legend:
BC2L-C = biological target: T1, BC2L-C (Burkholderia cenocepacia, UniProt B4EH86); experiment: hemagglutination inhibition, microscope detection; assay type: biochemical; conditions: human 0+ papain-treated red blood cells, 20 mM Tris/HCl, 150 mM NaCl, 5 mM CaCl2, pH 7.5, room temperature, lectin 0.1 mg/mL, semi-quantitative
T1 construct: gene BCAM0185; recombinant in E. coli; D-mannose-agarose purified; N-terminal domain (fucose site) is a trimer
T1 sequence (B4EH86 entry or part of it): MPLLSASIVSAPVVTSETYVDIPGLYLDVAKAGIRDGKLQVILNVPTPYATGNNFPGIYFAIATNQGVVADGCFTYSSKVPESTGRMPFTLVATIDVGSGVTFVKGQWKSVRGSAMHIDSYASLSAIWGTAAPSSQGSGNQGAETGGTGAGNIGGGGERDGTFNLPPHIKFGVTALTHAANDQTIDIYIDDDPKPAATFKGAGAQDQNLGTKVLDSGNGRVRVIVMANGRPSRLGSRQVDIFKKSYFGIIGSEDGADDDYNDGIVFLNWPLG
Text: hemagglutination inhibition, microscope detection on BC2L-C

RSL = RSL (Ralstonia pseudosolanacearum, UniProt Q8XXK6); conditions: PBS, room temperature, lectin 0.05 mg/mL
AAL = biological target: T2, AAL (Aleuria aurantia, UniProt P18891); experiment: hemagglutination inhibition, microscope detection; assay type: biochemical; conditions: PBS, room temperature, lectin 0.05 mg/mL
T2 construct: purchased freeze-dried (Vector Laboratories); dimer
T2 sequence (P18891 2-313): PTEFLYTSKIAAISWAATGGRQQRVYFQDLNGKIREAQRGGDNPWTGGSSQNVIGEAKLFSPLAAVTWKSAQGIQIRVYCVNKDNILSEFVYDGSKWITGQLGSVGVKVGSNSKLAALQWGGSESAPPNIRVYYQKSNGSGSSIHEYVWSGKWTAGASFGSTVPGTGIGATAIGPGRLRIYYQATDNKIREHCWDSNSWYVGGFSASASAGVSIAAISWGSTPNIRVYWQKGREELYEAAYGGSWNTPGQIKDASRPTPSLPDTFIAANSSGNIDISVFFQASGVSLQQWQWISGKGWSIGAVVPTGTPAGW
Text: hemagglutination inhibition, microscope detection on AAL

AFL = biological target: T3, AFL (Aspergillus fumigatus, UniProt Q4WW81); experiment: hemagglutination inhibition, microscope detection; assay type: biochemical; conditions: PBS; room temperature; lectin 0.05 mg/mL; valency 1
T3 construct: gene fleA; dimer of six-bladed beta-propellers
T3 sequence (Q4WW81 whole entry): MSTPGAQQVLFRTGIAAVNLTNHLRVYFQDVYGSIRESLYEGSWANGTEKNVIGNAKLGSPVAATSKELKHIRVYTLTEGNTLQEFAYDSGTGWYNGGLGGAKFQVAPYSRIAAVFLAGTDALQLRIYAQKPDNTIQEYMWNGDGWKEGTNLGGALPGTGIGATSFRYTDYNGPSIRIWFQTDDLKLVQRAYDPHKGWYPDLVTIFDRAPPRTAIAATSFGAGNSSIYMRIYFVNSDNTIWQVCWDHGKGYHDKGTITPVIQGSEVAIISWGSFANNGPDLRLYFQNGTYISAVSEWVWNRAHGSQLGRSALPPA
Text: hemagglutination inhibition, microscope detection on AFL

PA-IIL (LecB) = biological target: T4, PA-IIL (LecB) (Pseudomonas aeruginosa, UniProt Q9HYN5); experiment: hemagglutination inhibition, microscope detection; assay type: biochemical; conditions: 20 mM Tris/HCl, 150 mM NaCl, 5 mM CaCl2, pH 7.5, room temperature, lectin 1.25 mg/mL
T4 construct: recombinant in E. coli, D-mannose-agarose purified; homotetramer, two calcium ions per site
T4 sequence (Q9HYN5 entry or part of it): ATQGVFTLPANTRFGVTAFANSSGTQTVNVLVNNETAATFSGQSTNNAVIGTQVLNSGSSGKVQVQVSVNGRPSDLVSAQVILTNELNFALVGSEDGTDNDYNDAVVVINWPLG
Text: hemagglutination inhibition, microscope detection on PA-IIL (LecB)

AOL = biological target: T5, AOL (Aspergillus oryzae, UniProt Q2UNX8); experiment: hemagglutination inhibition, microscope detection; assay type: biochemical; conditions: PBS, room temperature, lectin 0.05 mg/mL
T5 construct: gene fleA; purchased freeze-dried (TCI); dimer
T5 sequence (Q2UNX8 1-311): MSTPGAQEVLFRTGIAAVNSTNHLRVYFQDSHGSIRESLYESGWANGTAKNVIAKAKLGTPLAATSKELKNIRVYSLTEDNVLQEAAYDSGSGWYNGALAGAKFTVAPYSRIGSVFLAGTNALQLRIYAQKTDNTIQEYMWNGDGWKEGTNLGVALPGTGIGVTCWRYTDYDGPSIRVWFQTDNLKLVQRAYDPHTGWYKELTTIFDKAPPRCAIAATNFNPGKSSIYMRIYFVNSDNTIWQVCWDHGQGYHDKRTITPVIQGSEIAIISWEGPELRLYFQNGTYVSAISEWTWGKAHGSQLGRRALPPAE
Text: hemagglutination inhibition, microscope detection on AOL

SMILES: C[C@@H]1O[C@@H](SCCS(=O)(=O)O)[C@@H](O)[C@H](O)[C@@H]1O [compound 22, Compound 22]
- RSL / Potency (BC2L-C; valency 4): 4 fold vs L-fucose

SMILES: C[C@@H]1O[C@@H](OCc2cn(CCN=[N+]=[N-])nn2)[C@@H](O)[C@H](O)[C@@H]1O [compound 12, Compound 12]
- RSL / Potency (RSL; valency 1): 32 fold vs L-fucose

SMILES: C[C@@H]1O[C@@H](SCCO)[C@@H](O)[C@H](O)[C@@H]1O [compound 21, Compound 21]
- AFL / Potency (AAL; valency 1): 2 fold vs L-fucose
- AFL / Potency (AFL): 2 fold vs L-fucose
- RSL / Potency (BC2L-C; valency 4 buffer and lectin concentration, valency 1): 4 fold vs L-fucose
- RSL / Potency (RSL; valency 1): 4 fold vs L-fucose
- RSL / Potency (PA-IIL (LecB); valency 1): 4 fold vs L-fucose
- RSL / Potency (AOL; valency 1): 4 fold vs L-fucose

SMILES: C[C@@H]1O[C@@H](OCc2cn(CCOCCOCCOCCn3cc(COCC(COCc4cn(CCOCCOCCOCCn5cc(CO[C@@H]6O[C@@H](C)[C@@H](O)[C@@H](O)[C@@H]6O)nn5)nn4)(COCc4cn(CCOCCOCCOCCn5cc(CO[C@@H]6O[C@@H](C)[C@@H](O)[C@@H](O)[C@@H]6O)nn5)nn4)COCc4cn(CCOCCOCCOCCn5cc(CO[C@@H]6O[C@@H](C)[C@@H](O)[C@@H](O)[C@@H]6O)nn5)nn4)nn3)nn2)[C@@H](O)[C@H](O)[C@@H]1O [compound 2, Compound 2]
- AFL / Potency (AAL; valency 4): 128 fold vs L-fucose
- BC2L-C / Potency (BC2L-C; valency 4): 16 fold vs L-fucose
- RSL / Potency (RSL; valency 4): 1024 fold vs L-fucose
- AFL / β^# (PA-IIL (LecB); valency 4): 32 fold vs L-fucose
- RSL / β^# (AOL; 0+ papain-treated red blood cells, semi-quantitative, valency 4): 256 fold vs L-fucose

SMILES: C#CCO[C@@H]1O[C@@H](C)[C@@H](O)[C@@H](O)[C@@H]1O [compound 11, Compound 11]
- AFL / Potency (AAL; valency 1): 4 fold vs L-fucose
- AFL / Potency (AFL): 4 fold vs L-fucose
- RSL / Potency (RSL; valency 1): 8 fold vs L-fucose
- AFL / Potency (PA-IIL (LecB); valency 1): 4 fold vs L-fucose
- AFL / Potency (AOL; valency 1): 4 fold vs L-fucose

SMILES: C[C@@H]1O[C@@H](OCc2cn(CCOCCOCCOCCn3cc(CO[C@@H]4O[C@@H](C)[C@@H](O)[C@@H](O)[C@@H]4O)nn3)nn2)[C@@H](O)[C@H](O)[C@@H]1O [compound 14, Compound 14]
- RSL / Potency (RSL; valency 2): 128 fold vs L-fucose

Reference: PMC6631993, “Investigation of the Binding Affinity of a Broad Array of L-Fucosides with Six Fucose-Specific Lectins of Bacterial and Fungal Origin” (Molecules, 2019)
